ChEMBL document CHEMBL1122789, “Synthesis and biological activity of structural analogues of the anticancer benzophenanthridine alkaloid nitidine chloride” (1984)

Columns and labels:
[1] = Evaluated for anticancer activity in tumor inhibition system colon 38 tumor at dose 200 mg/kg; assay type: functional, Mus musculus
P388 [2] = experiment: Evaluated for anticancer activity in survival tumor system P388 lymphocytic leukemia at a dose of 100 mg/kg, value was reported as weight difference; assay type: functional, Mus musculus
L1210 [3] = experiment: Evaluated for anticancer activity in survival tumor system L1210 lymphoid leukemia at a dose of 50 mg/kg, value was reported as weight difference; assay type: functional, Mus musculus
[4] = system: Lewis lung carcinoma cell line; experiment: Evaluated for anticancer activity in survival tumor system tumor system Lewis lung (LL) carcinoma at a dose of 200 mg/kg; Number of Tested survived/number of control survived (2/10); assay type: functional, Mus musculus
P388 [5] = experiment: Evaluated for anticancer activity in survival tumor system P388 lymphocytic leukemia at a dose of 50 mg/kg;Number of Tested survived/number of control survived (5/5); details: Mus musculus
MX1 [6] = experiment: Evaluated for anticancer activity in tumor inhibition system MX-1 breast xenograph at a dose of 75 mg/kg, value was reported as weight difference; assay type: functional, Homo sapiens
[7] = Evaluated for anticancer activity in tumor inhibition system colon 38 tumor at dose 50 mg/kg; assay type: functional, Mus musculus
B16 [8] = experiment: Evaluated for anticancer activity in survival tumor system B16 melanocarcinoma at a dose of 25 mg/kg, value was reported as weight difference; assay type: functional, Mus musculus
[9] = system: Lewis lung carcinoma cell line; experiment: Evaluated for anticancer activity in survival tumor system Lewis lung (LL) carcinoma at a dose of 25 mg/kg, value was reported as weight difference; assay type: functional, Mus musculus
P388 [10] = experiment: Evaluated for anticancer activity in survival tumor system P388 lymphocytic leukemia at dose 25 mg/kg; assay type: functional, Mus musculus
[11] = Evaluated for anticancer activity in tumor inhibition system CD8F1 mammary tumors at a dose of 125 mg/kg; Number of Tested survived/number of control survived (10/10); assay type: functional, Mus musculus
[12] = Evaluated for anticancer activity in tumor inhibition system CD8F mammary tumor at a dose of 125 mg/kg, value was reported as weight difference; assay type: functional, Mus musculus
[13] = Evaluated for anticancer activity in tumor inhibition system CD8F1 mammary tumor at dose 125 mg/kg; assay type: functional, Mus musculus
[14] = Evaluated for anticancer activity in tumor inhibition system CD8F1 mammary tumor at dose 62 mg/kg; assay type: functional, Mus musculus
L1210 [15] = experiment: Evaluated for anticancer activity in survival tumor system L1210 lymphoid leukemia at dose 50 mg/kg; assay type: functional, Mus musculus
P388 [16] = experiment: Evaluated for anticancer activity in survival tumor system P388 lymphocytic leukemia at a dose of 50 mg/kg, value was reported as weight difference; assay type: functional, Mus musculus
P388 [17] = experiment: Evaluated for anticancer activity in survival tumor system P388 lymphocytic leukemia at a dose of 100 mg/kg; Number of Tested survived/number of control survived (5/6); assay type: functional, Mus musculus
P388 [18] = experiment: Evaluated for anticancer activity in survival tumor system P388 lymphocytic leukemia at a dose of 12.5 mg/kg, value was reported as weight difference; assay type: functional, Mus musculus
B16 [19] = experiment: Evaluated for anticancer activity in survival tumor system B16 melanocarcinoma at dose 6.25 mg/kg; assay type: functional, Mus musculus
L1210 [20] = experiment: Evaluated for anticancer activity in survival tumor system L1210 lymphoid leukemia at dose 12.5 mg/kg; assay type: functional, Mus musculus
[21] = Evaluated for anticancer activity in tumor inhibition system CD8F1 mammary tumors at a dose of 250 mg/kg; number of Tested survived/number of control survived; assay type: functional, Mus musculus
[22] = system: Lewis lung carcinoma cell line; experiment: Evaluated for anticancer activity in survival tumor system Lewis lung (LL) carcinoma at dose 100 mg/kg; assay type: functional, Mus musculus
[23] = Evaluated for anticancer activity in tumor inhibition system colon 38 at a dose of 50 mg/kg, value was reported as weight difference; assay type: functional, Mus musculus
[24] = Evaluated for anticancer activity in tumor inhibition system colon 38 tumors at a dose of 800 mg/kg; Number of Tested survived/number of control survived (0/10); assay type: functional, Mus musculus
[25] = Evaluated for anticancer activity in tumor inhibition system CD8F mammary tumor at a dose of 62 mg/kg, value was reported as weight difference; assay type: functional, Mus musculus
[26] = system: Lewis lung carcinoma cell line; experiment: Evaluated for anticancer activity in survival tumor system Lewis lung (LL) carcinoma at a dose of 50 mg/kg;Number of Tested survived/number of control survived (10/10); assay type: functional, Mus musculus
B16 [27] = experiment: Evaluated for anticancer activity in survival tumor system B16 melanocarcinoma at dose 12.5 mg/kg; assay type: functional, Mus musculus
L1210 [28] = experiment: Evaluated for anticancer activity in survival tumor system L1210 lymphoid leukemia at dose 25 mg/kg; details: Mus musculus
L1210 [29] = experiment: Evaluated for anticancer activity in survival tumor system L1210 lymphoid leukemia at a dose of 100 mg/kg, value was reported as weight difference; assay type: functional, Mus musculus
L1210 [30] = experiment: Evaluated for anticancer activity in survival tumor system L1210 lymphoid leukemia at a dose of 6.25 mg/kg, value was reported as weight difference; assay type: functional, Mus musculus
[31] = Evaluated for anticancer activity in tumor inhibition system CD8F1 mammary tumors at a dose of 500 mg/kg; Number of Tested survived/number of control survived (0/10); assay type: functional, Mus musculus
B16 [32] = experiment: Evaluated for anticancer activity in survival tumor system B16 melanocarcinoma at a dose of 50 mg/kg, value was reported as weight difference; assay type: functional, Mus musculus
[33] = system: Lewis lung carcinoma cell line; experiment: Evaluated for anticancer activity in survival tumor system Lewis lung (LL) carcinoma at a dose of 12.5 mg/kg; Number of Tested survived/number of control survived (10/10); assay type: functional, Mus musculus
B16 [34] = experiment: Evaluated for anticancer activity in survival tumor system B16 melanocarcinoma at dose 100 mg/kg; assay type: functional, Mus musculus
L1210 [35] = experiment: Evaluated for anticancer activity in survival tumor system L1210 lymphoid leukemia at a dose of 6.25 mg/kg; Number of Tested survived/number of control survived (6/6); assay type: functional, Mus musculus
MX1 [36] = experiment: Evaluated for anticancer activity in tumor inhibition system MX-1 breast xenograph at a dose of 300 mg/kg; Number of Tested survived/number of control survived (1/6); assay type: functional, Homo sapiens
L1210 [37] = experiment: Evaluated for anticancer activity in survival tumor system L1210 lymphoid leukemia at a dose of 3.125 mg/kg; Number of Tested survived/number of control survived (6/6); assay type: functional, Mus musculus
[38] = Evaluated for anticancer activity in tumor inhibition system colon 38 at a dose of 100 mg/kg, value was reported as weight difference; assay type: functional, Mus musculus
B16 [39] = experiment: Evaluated for anticancer activity in survival tumor system B16 melanocarcinoma at a dose of 200 mg/kg, value was reported as weight difference; assay type: functional, Mus musculus
L1210 [40] = experiment: Evaluated for anticancer activity in survival tumor system L1210 lymphoid leukemia at dose 100 mg/kg; assay type: functional, Mus musculus
B16 [41] = experiment: Evaluated for anticancer activity in survival tumor system B16 melanocarcinoma at a dose of 12.5 mg/kg; Number of Tested survived/number of control survived (9/10); assay type: functional, Mus musculus
[42] = Evaluated for anticancer activity in tumor inhibition system colon 38 tumor at dose 400 mg/kg; assay type: functional, Mus musculus
B16 [43] = experiment: Evaluated for anticancer activity in survival tumor system B16 melanocarcinoma at a dose of 6.25 mg/kg; Number of Tested survived/number of control survived (10/10); assay type: functional, Mus musculus
MX1 [44] = experiment: Evaluated for anticancer activity in tumor inhibition system MX-1 breast xenograph at dose 150 mg/kg; assay type: functional, Homo sapiens

COc1cc2c[n+](C)c3c(c2cc1OC)Cc1cc2c(cc1-3)OCO2.[Cl-]
T/C [1]: 97% | Weight change (P388 [2]): -5.8 | Weight change (L1210 [3]): -5.8 | Survival [4]: 2 | Survival (P388 [5]): 5 | Weight change (MX1 [6]): -4.5 | T/C [7]: 94% | Weight change (B16 [8]): -2.5 | Weight change [9]: -2.4 | T/C (P388 [10]): 151% | Survival [11]: 10 | Weight change [12]: -3.2 | T/C [13]: 105% | T/C [14]: 92% | T/C (L1210 [15]): 198% | Weight change (P388 [16]): -5 | Survival (P388 [17]): 5 | Weight change (P388 [18]): -1.4 | T/C (B16 [19]): 148% | T/C (L1210 [20]): 156% | Survival [21]: 2 | T/C [22]: 51% | Weight change [23]: -0.8 | Survival [24]: 0 | Weight change [25]: -1 | Survival [26]: 10 | T/C (B16 [27]): 131% | T/C (L1210 [28]): 165% | Weight change (L1210 [29]): -5.8 | Weight change (L1210 [30]): -3.2 | Survival [31]: 0 | Weight change (B16 [32]): -4.9 | Survival [33]: 10 | T/C (B16 [34]): 120% | Survival (L1210 [35]): 6 | Survival (MX1 [36]): 1 | Survival (L1210 [37]): 6 | Weight change [38]: -1.9 | Weight change (B16 [39]): -4.2 | T/C (L1210 [40]): 95% | Survival (B16 [41]): 9 | T/C [42]: 85% | Survival (B16 [43]): 10 | T/C (MX1 [44]): 35%
